Measured values reported in US20170065564A1, “BIS-CYCLIC GUANIDINE COMPOUND COMPOSITIONS, METHODS OF USE AND TREATMENT THEREOF” (University of South Florida, priority 2014, published 2017).
pIC50: −log10 of the molar value. ≈ marks a conversion by molar mass, not a printed value.

Assays:
[1] = tested on: Staphylococcus aureus (USA300 strain FPR3757); experiment: Murine model of lethal peritonitis; assay type: in vivo, mice; details: 2× MIC, I.M., 1 h post-infection, six mice per group
Protocol: Using MRSA as a representative ESKAPE organism, we infected mice with 1×10^8 bacterial cells in 5% mucin via intraperitoneal injection. At 1 h post-infection, mice were then I.V. injected with either vancomycin (positive control), or I.M. with our front runner compounds.
Six mice per group were injected with 1×10^8 CFU ml^−1 of Staphylococcus aureus (USA300 strain FPR3757) in PBS containing 5% mucin. […] Mice were monitored twice daily for five days to assess mortality. The clinical endpoint of this study was when the mice reached a pre-moribund state. Characteristics of pre-moribund state include: hunched posture, rapid, shallow and/or labored breathing, ruffled fur, lethargy, failure to respond to stimuli, soiled anogenital area, paralysis, paresis, head tilt, circling, vocalizations, non-purposeful movements and/or were unable to eat or drink. Those mice reaching this state prior to the completion of the 5 day infection period were euthanized. The number of mice surviving between control and treatment groups was compared and analyzed for statistical significance using a log rank test.

Acinetobacter baumannii = experiment: MIC micro broth dilution assay; assay type: cell-based; design: key to stacked score activity, 100/MIC, A: stacked score = 100/MIC
Outline: (§1)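 Strains were multidrug-resistant clinical isolates grown in LB (Gram-negative) or TSB (Gram-positive), diluted 1:1,000 before compound addition.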

Klebsiella pneumoniae = experiment: MIC micro broth dilution assay; assay type: cell-based; design: key to stacked score activity, 100/MIC, K: stacked score = 100/MIC
Outline: as §1

ESKAPE pathogens = experiment: MIC micro broth dilution assay, statements and stacked scores over all ESKAPE pathogens; assay type: cell-based
Outline: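 Overnight cultures of multidrug-resistant clinical isolates, diluted 1 in 1,000 (Gram-positives in TSB, Gram-negatives in LB), were exposed to decreasing compound concentrations in DMF (≤2.0%) at 37° C. MIC was read visually as no turbidity after 24 hours, in triplicate. Broad-spectrum activity was ranked by stacked scores.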

E. cloacae = assay type: cell-based, Enterobacter cloacae; details: 8 passages, concentration doubled each day
Protocol: ESKAPE pathogens were grown overnight in liquid media at 37° C. These cultures were then diluted 1:100 in fresh media, and seeded into a 96-well plate. Lead bis-cyclic guanidines or control agents were added to respective wells at half MIC concentrations. […] These were then grown overnight, and the procedure repeated for a total of eight days.

human A549 cells = experiment: Cytotoxicity assay (MTT); assay type: cell-based
Protocol: Cytotoxicity assays were performed using human A549 cells (adenocarcinomic human alveolar epithelial cells), as described by us previously.^44 Briefly, cells were cultured in F-12K Nutrient mixture (Kaighn's Modification) media containing L-glutamine, supplemented with 10% fetal bovine serum and 1% penicillin-streptomycin for 3 days at 37° and 5% CO2. Cells were then diluted to 1.0×10^5 ml^−1 using F-12K supplemented media, and added to 96 well tissue culture plates at a volume of 100 μl. Plates were incubated for 24 hours at 37° C. and 5% CO2, allowing the cells to adhere to the plastic. […] Plates were then incubated for 48 hours at 37° C. and 5% CO2. After 48 hours the media was removed, and new media added containing MTT (3-(4, 5-dimethylthiazol-2-yl)-2, 5-diphenyltetrazolium bromide), followed by incubation for four hours at 37° C. and 5% CO2. After 4 h, 50 μl of media was removed, replaced with DMSO and incubated for ten minutes at 37° C. in order to solubilize any formazan produced. A Biotek plate reader was used to measure the absorbance of formazan production at […], and IC50 values were determined for each of the five compounds. Front runners were solvated in 45% w/v (2-hydroxypropyl)-β-cyclodextrin in water for these studies; which was also used alone as a negative control. IC50 values were determined for each compound by comparison to vehicle only controls, to assess toxicity to human cells.

Pseudomonas aeruginosa = experiment: MIC micro broth dilution assay; assay type: cell-based
Protocol: For this study we used a representative panel of multi-drug resistant clinical ESKAPE pathogen isolates (Supplemental Table S6).^42 43 3a, 44 45 Gram-positive organisms were grown in tryptic soy broth media (TSB), whilst Gram-negative organisms were grown in lysogeny Broth (LB), as described by us previously. ^43 MIC and MBC determination assays.
Broth cultures of ESKAPE strains were grown overnight before being diluted 1 in 1,000 in fresh media. Sterile 96-well plates were loaded with culture and compounds (in DMF) were added at decreasing concentrations to equal a total volume of 200 μl per well. Care was taken to not add more than 2.0% DMF to any well. Plates were then incubated at 37° C., and MICs determined after 24 hours by visual inspection for a lack of turbidity in wells. All assays were performed in triplicate with identical results obtained. For both the scaffold ranking and positional scanning samples, relative broad-spectrum activity was determined via stacked scores: […]

[2] = panel of K. pneumoniae clinical isolates

SMILES: CCCCCCCN1C(=N)N(CCCC[C@H]2CNC(=N)N2CCC23CC4CC(CC(C4)C2)C3)C[C@@H]1CCCC [Compound 19]
- survival of infected mice over 5 day infection period [1]: only a single mouse succumbing to infection after the first day
- stacked score activity, 100/MIC, A (Acinetobacter baumannii; A. baumannii): 25
- MIC (Acinetobacter baumannii; A. baumannii isolate 1403): 2.0 µM (≈ 1.08 µg/mL)
- MIC (Acinetobacter baumannii; A. baumannii isolate 1643): 2.0 µM (≈ 1.08 µg/mL)
- MIC (Acinetobacter baumannii; A. baumannii isolate 1644): 2.0 µM (≈ 1.08 µg/mL)
- MIC (Acinetobacter baumannii; A. baumannii isolate 1647): 2.0 µM (≈ 1.08 µg/mL)
- MIC (Acinetobacter baumannii; A. baumannii isolate 1648): 2.0 µM (≈ 1.08 µg/mL)
- MIC (Acinetobacter baumannii; A. baumannii isolate 1649): 2.0 µM (≈ 1.08 µg/mL)
- MIC (Acinetobacter baumannii; A. baumannii isolate 1650): 2.0 µM (≈ 1.08 µg/mL)
- MIC (Acinetobacter baumannii; A. baumannii isolate 1651): 2.0 µM (≈ 1.08 µg/mL)
- MIC (Acinetobacter baumannii; A. baumannii isolate 1653): 2.0 µM (≈ 1.08 µg/mL)
- MIC (Acinetobacter baumannii; A. baumannii isolate 1654): 2.0 µM (≈ 1.08 µg/mL)
- MIC (Acinetobacter baumannii; purified compound, Table 1): 1.66 µM (≈ 0.898 µg/mL)
- stacked score activity, 100/MIC, K (Klebsiella pneumoniae; K. pneumoniae): 20
- MIC (Klebsiella pneumoniae; K. pneumoniae isolate 1408): 2.0 µM (≈ 1.08 µg/mL)
- MIC (Klebsiella pneumoniae; K. pneumoniae isolate 1409): 3.0 µM (≈ 1.62 µg/mL)
- MIC (Klebsiella pneumoniae; K. pneumoniae isolate 1410): 3.0 µM (≈ 1.62 µg/mL)
- MIC (Klebsiella pneumoniae; K. pneumoniae isolate 1411): 2.0 µM (≈ 1.08 µg/mL)
- MIC (Klebsiella pneumoniae; K. pneumoniae isolate 1412): 3.0 µM (≈ 1.62 µg/mL)
- MIC (Klebsiella pneumoniae; K. pneumoniae isolate 1413): 3.0 µM (≈ 1.62 µg/mL)
- MIC (Klebsiella pneumoniae; K. pneumoniae isolate 1433): 2.0 µM (≈ 1.08 µg/mL)
- MIC (Klebsiella pneumoniae; K. pneumoniae isolate 1434): 5.0 µM (≈ 2.7 µg/mL)
- MIC (Klebsiella pneumoniae; K. pneumoniae isolate 1440): 3.0 µM (≈ 1.62 µg/mL)
- MIC (Klebsiella pneumoniae; K. pneumoniae isolate 1441): 2.0 µM (≈ 1.08 µg/mL)
- concentration inhibiting 70% of strains (Klebsiella pneumoniae; [2]): 2 µM
- concentration inhibiting 90% of isolates (Klebsiella pneumoniae; [2]): 5 µM
- MIC (Klebsiella pneumoniae; purified compound, Table 1): 1.66 µM (≈ 0.898 µg/mL)
- pathogens against which the compound showed activity at 4 ug/ml (ESKAPE pathogens; dose 4 ug/ml, letters E,S,K,A,P,E = ESKAPE pathogens, — = none): ESAP
- pathogens against which the compound showed activity at 5 ug/ml (ESKAPE pathogens; dose 5 ug/ml, letters E,S,K,A,P,E = ESKAPE pathogens, — = none): ESKAPE
- pathogens against which the compound showed activity at 10 ug/ml (ESKAPE pathogens; dose 10 ug/ml, letters E,S,K,A,P,E = ESKAPE pathogens, — = none): ESKAPE
- pathogens against which the compound showed activity at 25 ug/ml (ESKAPE pathogens; dose 25 ug/ml, letters E,S,K,A,P,E = ESKAPE pathogens, — = none): ESKAPE
- stacked score Total (ESKAPE pathogens; stacked score over all ESKAPE pathogens (details in Table S4b)): 156
- Total stacked score (ESKAPE pathogens; sum over all six ESKAPE pathogens): 156
- increase in MIC after serial passage (E. cloacae): 8 fold
- A549 cell recovery compared to vehicle only controls (human A549 cells; 225 μM (highest concentration tested)): > 70%
- pIC50 (human A549 cells; MTT, 48 hours): 3.84
- A549 cell recovery compared to vehicle only controls (human A549 cells; above 45 μM, at concentrations up to 225 μM): ≥ 26%
- A549 cell recovery compared to vehicle only controls (human A549 cells; concentrations up to 45 μM): > 97%
- MIC (Pseudomonas aeruginosa; P. aeruginosa isolate 1414): 5.0 µM (≈ 2.7 µg/mL)
- MIC (Pseudomonas aeruginosa; P. aeruginosa isolate 1415): 5.0 µM (≈ 2.7 µg/mL)
- MIC (Pseudomonas aeruginosa; P. aeruginosa isolate 1416): 3.0 µM (≈ 1.62 µg/mL)
- MIC (Pseudomonas aeruginosa; P. aeruginosa isolate 1417): 3.0 µM (≈ 1.62 µg/mL)
- MIC (Pseudomonas aeruginosa; P. aeruginosa isolate 1418): 7.0 µM (≈ 3.79 µg/mL)
- MIC (Pseudomonas aeruginosa; P. aeruginosa isolate 1419): 3.0 µM (≈ 1.62 µg/mL)
- MIC (Pseudomonas aeruginosa; P. aeruginosa isolate 1420): 5.0 µM (≈ 2.7 µg/mL)
- MIC (Pseudomonas aeruginosa; P. aeruginosa isolate 1421): 5.0 µM (≈ 2.7 µg/mL)
- MIC (Pseudomonas aeruginosa; P. aeruginosa isolate 1422): 5.0 µM (≈ 2.7 µg/mL)
- MIC (Pseudomonas aeruginosa; P. aeruginosa isolate 1423): 2.0 µM (≈ 1.08 µg/mL)
- concentration inhibiting 90% of isolates (Pseudomonas aeruginosa; panel of P. aeruginosa clinical isolates): 10 µM
- MIC (Pseudomonas aeruginosa; purified compound, Table 1): 1.66 µM (≈ 0.898 µg/mL)
